Patent US20220162215A1, “COMPOSITIONS AND METHODS OF USING THE SAME FOR TREATMENT OF NEURODEGENERATIVE AND MITOCHONDRIAL DISEASE” (MITOKININ, INC., priority 2019, published 2022)
In brackets after ≈: the same amount, converted by molar mass. Where two headings read alike, the source gives them in different places.

Columns and labels:
[1] = test system: Hela MKYP (Mito-Keima/YFP-Parkin) cells; experiment: Inspection of round cells; conditions: Tables 6A-6D
Method: (§2) Briefly, the Hela MKYP (Mito-Keima/YFP-Parkin) cells were seeded at 10K cells/well. EP/MTK compounds were added at seeding (cells were still in suspension). The cells were incubated with the EP/MTK compounds for 16 hours, then 1 μM FCCP/oligomycin was added for 6 hours. Prior to harvesting, cells were scored by eye under 20× magnification for the presence or absence of crystalline or aggregated compound, or round cells.

[2] = Visual inspection of crystallization; format: physicochemical; design: key: 1: yes crystals; 0: no crystals; conditions: Tables 5A-5D
Method: as §2

[3] = test system: HeLa MKYP cells; experiment: Toxicity / cell death measured by DAPI staining (take-up); format: cell-based; conditions: for Max cell death at 25 uM compound, 1 uM FO / Cell death at 25 μM (no FO): Table 3 Supplement B
Method: H2O2 treatment was performed as a control for cell death as measured by DAPI staining.
(§1) Briefly, HeLa MKYP cells were plated at 10,000 cells/well in 96 well plates along with compounds at various concentrations. Following 16 hrs of incubation, cells were treated with 1 uM FCCP/oligomycin for 6 hours, then analyzed via FACS for the presence of mitochondria in lysosomes (as determined by an emissions spectrum shift from the pH-sensitive mtKeima tag).

[4] = test system: HeLa MKYP cells; experiment: Human mitophagy assay (HeLa MKYP, mtKeima FACS, FCCP/oligomycin); format: cell-based
Method: as §1, with “tag). Examples are shown in FIG. 1 through FIG. 13 below.” for “tag).”

[5] = Solubility in 1× PBS; format: physicochemical
[6] = Homo sapiens, HeLa, Table 3, read-out: Potency at 1 μM F/O toxin* (EC50 of mitophagy activation)
[7] = Homo sapiens, HeLa, Table 3 Supplement A, as measured in Table 3, read-out: Potency (EC50 Max Mitophagy) (μM)*
[8] = Homo sapiens, HeLa, Table 3 Supplement B, read-out: Mitophagy EC50 (HeLa mKeima assay)
[9] = Table 3, read-out: Potency at 1 μM F/O toxin* (EC50 of mitophagy activation)

| Structure (SMILES) | Inspection of round cells ([1]; 1.6 μM) | Inspection of round cells ([1]; 3.1 μM) | Inspection of round cells ([1]; 6.3 μM) | Inspection of round cells ([1]; 12.5 μM) | Inspection of round cells ([1]; 25.0 μM) | Inspection of round cells ([1]; 50.0 μM) | Visual inspection of crystallization ([2]; 1.6 μM) | Visual inspection of crystallization ([2]; 3.1 μM) | Visual inspection of crystallization ([2]; 6.3 μM) | Visual inspection of crystallization ([2]; 12.5 μM) | Visual inspection of crystallization ([2]; 25.0 μM) | Visual inspection of crystallization ([2]; 50.0 μM) | Toxicity (% positive for DAPI takeup @ 50 μM) ([3]; Table 3) | EC50 [4, 6] | EC50 [4, 7] | Max cell death at 25 uM compound, 1 uM FO [3] | Cell death at 25 μM (no FO) [3] | solubility [5] | further results |
| --- | --- | --- | --- | --- | --- | --- | --- | --- | --- | --- | --- | --- | --- | --- | --- | --- | --- | --- | --- |
| CN(C)C1CCC(CNc2ncnc3[nH]c(C(F)(F)F)cc23)CC1 (centres unmarked) [Compound 50] | 0 | 0 | 0 | 0 | 0 | 0 | 0 | 0 | 0 | 0 | 0 | 0 | 5.2% | > 50 µM | – | – | – | – | Toxicity (% positive for DAPI take-up at 50 μM)* ([3]; Table 3 Supplement A): 5.16%; Potency (EC50 Max Mitophagy) (μM)* ([4]; Table 3 Supplement A, as measured in Table 3): 0.01 µM |
| C[C@@H](Nc1ncnc2[nH]cnc12)c1ccccc1 [Compound 52] | 0 | 0 | 0 | 0 | 0 | 0 | 0 | 0 | 0 | 0 | 0 | 0 | 10.1% | > 50 µM | > 25 µM | – | – | – | Toxicity (% positive for DAPI take-up at 50 μM)* ([3]; Table 3 Supplement A, listed as EP-0036297): 10.14% |
| COc1ncc(CNc2ncnc3[nH]c(C(F)(F)F)cc23)cn1 [Compound 66] | 0 | 0 | 0 | 0 | 1 | 1 | 0 | 0 | 0 | 0 | 1 | 1 | 5.8% | 10.6 µM | 10.6 µM | – | – | – | Toxicity (% positive for DAPI take-up at 50 μM)* ([3]; Table 3 Supplement A): 5.76% |
| c1ncc(CNc2ncnc3[nH]cnc23)cn1 [Compound 67] | 0 | 0 | 0 | 0 | 0 | 0 | 0 | 0 | 0 | 0 | 0 | 0 | – | 4.4 µM | 4.42 µM | – | – | – | Toxicity (% positive for DAPI take-up at 50 μM)* ([3]; human): 5.33%; Toxicity (% positive for DAPI takeup @ 50 μM) ([3]; human): 5.3% |
| CCCCNc1ncnc2[nH]c(C(F)(F)F)c(C)c12 [Compound 68] | 0 | 0 | 0 | 0 | 0 | 0 | 0 | 0 | 0 | 0 | 0 | 0 | 11.9% | > 50 µM | > 25 µM | – | – | – | Toxicity (% positive for DAPI take-up at 50 μM)* ([3]; Table 3 Supplement A): 11.94% |
| CCCCNc1ncnc2c1cc(C(F)(F)F)n2C(C)=O [Compound 69] | 0 | 0 | 0 | 0 | 0 | 0 | 0 | 0 | 0 | 0 | 0 | 0 | 36.6% | > 50 µM | – | – | – | – | – |
| C[C@@H](Nc1ncnc2[nH]c(C(F)(F)F)cc12)c1cncnc1 [Compound 70] | 0 | 0 | 0 | 0 | 0 | 0 | 0 | 0 | 0 | 0 | 0 | 0 | – | 21.6 µM | 21.6 µM | – | – | – | Toxicity (% positive for DAPI take-up at 50 μM)* ([3]; human): 22.95%; Toxicity (% positive for DAPI takeup @ 50 μM) ([3]; human): 22.9% |
| CC(Nc1ncnc2[nH]cnc12)c1ccccc1 (centres unmarked) [Compound 71] | 0 | 0 | 0 | 0 | 0 | 0 | 0 | 0 | 0 | 0 | 0 | 0 | 18.2% | 3.5 µM | 2.69 µM | – | – | – | Toxicity (% positive for DAPI take-up at 50 μM)* ([3]; Table 3 Supplement A): 22.24% |
| O[C@H]1Cc2ccccc2[C@H]1Nc1ncnc2[nH]c(C(F)(F)F)cc12 [Compound 83] | – | – | – | – | – | – | – | – | – | – | – | – | 21.2% | > 50 µM | – | 21.2% | 2.75% | 194 µM (≈ 64.9 µg/mL) | Mitophagy EC50 (HeLa mKeima assay) ([4]; Table 3 Supplement B): Minimal activity |
| O[C@@H]1Cc2ccccc2[C@@H]1Nc1ncnc2[nH]c(C(F)(F)F)cc12 [Compound 84] | – | – | – | – | – | – | – | – | – | – | – | – | 35.6% | 9 µM | – | 35.6% | 5.5% | 194 µM (≈ 64.9 µg/mL) | EC50 [4, 8]: 9.04 µM |
| COc1ccc2c(c1)[C@@H](Nc1ncnc3[nH]c(C(F)(F)F)cc13)CCC2 [Compound 86] | – | – | – | – | – | – | – | – | – | – | – | – | 3.2% | – | – | – | – | 1.2 µM (≈ 0.435 µg/mL) | Max cell death at 25 uM compound, 1 uM FO ([3]; listed as EP-0037130): 3.18%; Cell death at 25 μM (no FO) ([3]; listed as EP-0037130): 1.18%; EC50 [4, 9]: 4 µM; EC50 ([4]; Table 3 Supplement B, listed as EP-0037130, read-out: Mitophagy EC50 (HeLa mKeima assay)): 3.99 µM |
| COc1ccc2c(c1)[C@@H](Nc1ncnc3[nH]c(C(F)(F)F)cc13)CCC2 [Compound 87] | – | – | – | – | – | – | – | – | – | – | – | – | 5.9% | – | – | – | – | 1.2 µM (≈ 0.435 µg/mL) | Max cell death at 25 uM compound, 1 uM FO ([3]; listed as EP-0037131): 5.9%; Cell death at 25 μM (no FO) ([3]; listed as EP-0037131): 1.2%; EC50 [4, 9]: 9.5 µM; EC50 ([4]; Table 3 Supplement B, listed as EP-0037131, read-out: Mitophagy EC50 (HeLa mKeima assay)): 9.46 µM |
| OC1CCc2ccccc2C1Nc1ncnc2[nH]c(C(F)(F)F)cc12 (centres unmarked) [Compound 91] | – | – | – | – | – | – | – | – | – | – | – | – | 12.8% | > 50 µM | – | 12.8% | 3.79% | 1 µM (≈ 0.348 µg/mL) | Mitophagy EC50 (HeLa mKeima assay) ([4]; Table 3 Supplement B): Minimal activity |
| CC(=O)N1CCC(Nc2ncnc3[nH]c(C(F)(F)F)cc23)c2ccccc21 (centres unmarked) [Compound 93] | – | – | – | – | – | – | – | – | – | – | – | – | 6.9% | – | – | 6.92% | 2.69% | 1.32 µM (≈ 0.495 µg/mL) | EC50 [4, 8]: 17.3 µM |
| OC[C@H]1CCc2ccccc2[C@@H]1Nc1ncnc2[nH]c(C(F)(F)F)cc12 [Compound 95] | – | – | – | – | – | – | – | – | – | – | – | – | 30.9% | 5.5 µM | – | 30.87% | 9.83% | 9.07 µM (≈ 3.29 µg/mL) | EC50 [4, 8]: 5.55 µM |
| CO[C@@H]1COc2ccccc2[C@@H]1Nc1ncnc2[nH]c(C(F)(F)F)cc12 [Compound 96] | – | – | – | – | – | – | – | – | – | – | – | – | 12.1% | 1.6 µM | – | 12.11% | 3.4% | 23.8 µM (≈ 8.67 µg/mL) | EC50 [4, 8]: 1.63 µM |
| CO[C@@H]1COc2ccccc2[C@H]1Nc1ncnc2[nH]c(C(F)(F)F)cc12 [Compound 97] | – | – | – | – | – | – | – | – | – | – | – | – | 10.6% | 6.3 µM | – | 10.645% | 2.61% | 16.4 µM (≈ 5.97 µg/mL) | EC50 [4, 8]: 6.32 µM |
